The source of these data is article PMC10981686, “Structural bases of inhibitory mechanism of CaV1.2 channel inhibitors” (Nature Communications, 2024).

The structures appear in SMILES notation. Where “and” joins values, the source holds several entries; their conditions need not be identical. Equal values may be shown once. Read-outs that look alike come from different tables or passages of the source.

Test [1] has as its system CaV1.2 with substitutions at positions T1056 and Q1060. On the set-up: method as in PMID 9006896. Conditions: result in words; cited from earlier work.
A further test deals with T1, CaV1.2^Q1060F (Homo sapiens, UniProt Q13936, Q1060F).
T1 construct: superfolder GFP (sfGFP) (C); Twin-Strep (C); expressed in transfected cells; host or cells: HEK293T
In words: whole-cell patch clamp inhibition curves in HEK293T cells, Q1060F mutant. Format: cell-based. How it is done: (§1) Whole-cell voltage-clamp recordings were carried out using human embryonic kidney 293 T (HEK293T) cells, which were cultured in Dulbecco’s Modified Eagle Medium (DMEM, Gibco) supplemented with 10% (v/v) fetal bovine serum (FBS, PAN-Biotech) at 37 °C supplemented with 5% CO2. Three distinct recombinant baculoviruses encoding CaV1.2, α2δ1, and β2 were used to coinfect HEK293T cells once they reached a confluence of 40–60%. After 8−12 h, transfected cells were re-plated on 8 × 8 mm coverslips, and sodium butyrate was added to the culture at a final concentration of 0.5−2.5 mM to improve protein expression. Whole-cell recordings of activation curves were performed from isolated GFP-positive HEK293T cells at 20−28 h after transfection with recombinant baculoviruses. […] Pipettes were pulled to obtain final resistances of 2−6 MΩ with a Sutter P-97 puller and heat-polished before employment. […] The series resistance was not compensated in these experiments. […] Signals were digitized at 10 kHz and low-pass filtered at 2 kHz. Data were analyzed with Clampfit 10.7.
(§2) To measure the inhibition curves, 2 μg endotoxin-free plasmids of wild-type (WT) or mutants generated by PCR expressing CaV1.2, α2δ1, and β2 were transiently transfected using 1.2 μg Lipofectamine 2000 Reagent (Thermo Fisher Scientific). For curves determining, re-plated cells were held at −100 mV, and then depolarized at +10 mV to elicit inward currents. To ensure stable currents during measurement, a series of traces were pre-recorded at a specific time interval without drug application for each construct. […] Perfusions applied using a gravity-driven system. […] Data analyses were performed using Origin 2022 (Origin Lab Corporation), GraphPad Prism 9 (GraphPad Software, Inc.) and Adobe illustrator 2018.

The target of test [2] is T2, CaV1.2^WT (human CaV1.2 with α2δ1 and β2) (Homo sapiens, UniProt Q13936).
T2 construct: superfolder GFP (sfGFP) (C); Twin-Strep (C); expressed in transfected cells; host or cells: HEK293T
As to the kind of experiment: whole-cell patch clamp inhibition curves in HEK293T cells, wild-type CaV1.2. Type of test: cell-based. Conditions: for logIC50 (best-fit value): X values in μM. The protocol:
as §1, §2

The next test deals with T3, CaV1.2^T1056Y (Homo sapiens, UniProt Q13936, T1056Y).
T3 construct: superfolder GFP (sfGFP) (C); Twin-Strep (C); expressed in transfected cells; host or cells: HEK293T
In words: whole-cell patch clamp inhibition curves in HEK293T cells, T1056Y mutant. Type of test: cell-based. How it is done:
as §1, §2

The target of a further test is T4, CaV1.2^Q1060M (Homo sapiens, UniProt Q13936, Q1060M).
T4 construct: superfolder GFP (sfGFP) (C); Twin-Strep (C); expressed in transfected cells; host or cells: HEK293T
T4 sequence (Q13936 whole entry Q1060M): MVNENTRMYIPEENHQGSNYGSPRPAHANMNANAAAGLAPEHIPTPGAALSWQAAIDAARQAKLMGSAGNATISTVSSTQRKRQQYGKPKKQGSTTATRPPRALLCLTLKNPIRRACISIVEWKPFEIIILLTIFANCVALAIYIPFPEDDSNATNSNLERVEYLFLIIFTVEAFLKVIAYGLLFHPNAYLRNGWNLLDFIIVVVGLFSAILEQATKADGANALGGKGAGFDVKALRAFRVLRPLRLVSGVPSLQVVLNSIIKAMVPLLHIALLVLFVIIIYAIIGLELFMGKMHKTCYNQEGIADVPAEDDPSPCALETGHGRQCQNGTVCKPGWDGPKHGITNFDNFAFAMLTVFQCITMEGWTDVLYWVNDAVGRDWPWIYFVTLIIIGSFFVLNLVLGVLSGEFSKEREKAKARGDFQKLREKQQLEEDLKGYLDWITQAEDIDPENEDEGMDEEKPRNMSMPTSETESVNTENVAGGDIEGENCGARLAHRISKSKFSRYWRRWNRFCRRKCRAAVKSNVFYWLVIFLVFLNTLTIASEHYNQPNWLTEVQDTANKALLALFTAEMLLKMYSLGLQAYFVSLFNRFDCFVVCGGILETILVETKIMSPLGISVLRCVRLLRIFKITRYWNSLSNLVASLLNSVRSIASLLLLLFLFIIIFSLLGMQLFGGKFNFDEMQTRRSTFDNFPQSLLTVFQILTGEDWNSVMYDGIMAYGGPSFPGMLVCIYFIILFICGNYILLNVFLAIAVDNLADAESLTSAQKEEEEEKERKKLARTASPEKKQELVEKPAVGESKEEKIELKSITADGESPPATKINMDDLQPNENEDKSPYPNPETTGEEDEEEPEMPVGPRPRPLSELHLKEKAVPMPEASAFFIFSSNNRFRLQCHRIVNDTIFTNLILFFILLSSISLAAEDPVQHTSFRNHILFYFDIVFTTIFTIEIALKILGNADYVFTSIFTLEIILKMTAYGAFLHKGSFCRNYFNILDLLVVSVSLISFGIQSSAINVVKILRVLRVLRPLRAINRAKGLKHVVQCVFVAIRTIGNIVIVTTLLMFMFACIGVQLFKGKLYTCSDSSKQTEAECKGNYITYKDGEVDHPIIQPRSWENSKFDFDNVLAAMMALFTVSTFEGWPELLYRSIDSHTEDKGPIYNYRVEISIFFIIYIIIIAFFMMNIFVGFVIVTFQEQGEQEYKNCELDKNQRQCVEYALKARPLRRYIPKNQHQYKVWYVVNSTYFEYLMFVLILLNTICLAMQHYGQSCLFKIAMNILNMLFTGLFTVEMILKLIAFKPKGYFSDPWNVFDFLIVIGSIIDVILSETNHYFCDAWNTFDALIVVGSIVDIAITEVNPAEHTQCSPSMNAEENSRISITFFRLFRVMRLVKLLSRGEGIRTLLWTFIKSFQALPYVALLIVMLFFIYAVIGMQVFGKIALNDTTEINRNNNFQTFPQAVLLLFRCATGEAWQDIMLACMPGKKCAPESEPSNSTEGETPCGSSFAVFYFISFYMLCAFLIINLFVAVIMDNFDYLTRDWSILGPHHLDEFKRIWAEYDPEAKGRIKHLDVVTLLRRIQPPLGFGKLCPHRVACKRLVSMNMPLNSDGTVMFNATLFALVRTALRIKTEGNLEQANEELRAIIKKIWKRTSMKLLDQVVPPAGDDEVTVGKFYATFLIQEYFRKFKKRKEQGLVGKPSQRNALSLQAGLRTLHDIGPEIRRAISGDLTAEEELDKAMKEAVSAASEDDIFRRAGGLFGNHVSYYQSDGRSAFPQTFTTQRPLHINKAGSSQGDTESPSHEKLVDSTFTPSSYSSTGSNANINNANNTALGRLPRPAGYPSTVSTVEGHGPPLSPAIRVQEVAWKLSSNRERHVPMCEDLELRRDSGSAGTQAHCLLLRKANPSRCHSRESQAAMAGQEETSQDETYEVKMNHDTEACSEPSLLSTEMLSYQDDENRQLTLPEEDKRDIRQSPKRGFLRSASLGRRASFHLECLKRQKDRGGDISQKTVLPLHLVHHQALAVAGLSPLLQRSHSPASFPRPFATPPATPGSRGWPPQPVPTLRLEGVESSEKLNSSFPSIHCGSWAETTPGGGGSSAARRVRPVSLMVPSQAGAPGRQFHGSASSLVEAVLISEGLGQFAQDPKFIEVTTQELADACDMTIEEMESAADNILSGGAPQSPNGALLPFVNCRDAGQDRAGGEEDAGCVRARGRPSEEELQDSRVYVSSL
T4 sequence (P54289 25-946 partner limits assumed): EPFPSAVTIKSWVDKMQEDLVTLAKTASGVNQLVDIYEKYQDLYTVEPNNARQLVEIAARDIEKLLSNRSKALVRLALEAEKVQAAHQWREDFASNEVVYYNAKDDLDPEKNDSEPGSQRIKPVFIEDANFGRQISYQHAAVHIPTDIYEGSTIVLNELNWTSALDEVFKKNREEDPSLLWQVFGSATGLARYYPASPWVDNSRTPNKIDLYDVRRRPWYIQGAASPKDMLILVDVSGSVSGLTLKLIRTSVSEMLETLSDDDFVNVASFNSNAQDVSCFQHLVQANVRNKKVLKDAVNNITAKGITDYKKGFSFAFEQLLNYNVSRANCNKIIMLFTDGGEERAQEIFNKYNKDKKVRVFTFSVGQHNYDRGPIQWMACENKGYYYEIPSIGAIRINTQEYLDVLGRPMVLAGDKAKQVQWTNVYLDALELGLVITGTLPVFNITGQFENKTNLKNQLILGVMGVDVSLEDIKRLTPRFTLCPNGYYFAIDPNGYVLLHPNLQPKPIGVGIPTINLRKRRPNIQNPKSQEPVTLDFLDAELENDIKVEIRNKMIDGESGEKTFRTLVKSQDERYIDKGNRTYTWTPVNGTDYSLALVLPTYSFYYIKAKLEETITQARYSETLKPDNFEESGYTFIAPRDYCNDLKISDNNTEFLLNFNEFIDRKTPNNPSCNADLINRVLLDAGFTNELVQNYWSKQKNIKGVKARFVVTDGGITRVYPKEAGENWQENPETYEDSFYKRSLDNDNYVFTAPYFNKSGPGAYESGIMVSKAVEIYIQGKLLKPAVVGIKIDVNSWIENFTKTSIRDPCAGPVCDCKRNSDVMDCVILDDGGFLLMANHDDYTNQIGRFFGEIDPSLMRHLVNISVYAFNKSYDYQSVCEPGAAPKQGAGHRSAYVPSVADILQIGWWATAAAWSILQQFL
T4 sequence (P54289 947-1103 partner limits assumed): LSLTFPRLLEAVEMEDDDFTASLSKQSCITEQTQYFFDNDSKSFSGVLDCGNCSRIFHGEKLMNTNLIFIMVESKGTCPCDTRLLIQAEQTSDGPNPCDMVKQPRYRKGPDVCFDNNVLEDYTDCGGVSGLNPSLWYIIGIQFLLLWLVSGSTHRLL
T4 sequence (Q08289 1-606 isoform Q08289-3 partner): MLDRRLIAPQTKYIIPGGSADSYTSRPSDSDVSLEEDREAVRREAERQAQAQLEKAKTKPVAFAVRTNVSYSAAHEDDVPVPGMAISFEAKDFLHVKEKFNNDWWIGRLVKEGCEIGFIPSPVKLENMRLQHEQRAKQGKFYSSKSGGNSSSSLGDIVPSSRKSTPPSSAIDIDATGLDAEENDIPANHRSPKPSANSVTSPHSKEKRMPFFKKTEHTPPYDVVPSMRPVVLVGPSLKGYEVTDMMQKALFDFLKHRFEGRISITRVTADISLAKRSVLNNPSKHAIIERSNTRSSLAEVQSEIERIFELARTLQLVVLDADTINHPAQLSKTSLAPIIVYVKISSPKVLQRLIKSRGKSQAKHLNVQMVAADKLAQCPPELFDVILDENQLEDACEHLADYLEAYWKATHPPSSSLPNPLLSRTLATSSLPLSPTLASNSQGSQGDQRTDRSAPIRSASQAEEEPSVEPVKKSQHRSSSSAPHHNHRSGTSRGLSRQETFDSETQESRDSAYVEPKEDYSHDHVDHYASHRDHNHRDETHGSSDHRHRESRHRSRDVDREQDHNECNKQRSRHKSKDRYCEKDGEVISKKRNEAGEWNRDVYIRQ
As to the kind of experiment: whole-cell patch clamp inhibition curves in HEK293T cells, Q1060M mutant. Format: cell-based. How it is done: as §1, §2

The test system of test [3] is L-type and T-type channels. On the set-up: method as in earlier work. Conditions: result in words, 82 and references of Supplementary Table 2, cited from earlier work.
For a further test, the system named is T-type CaV channels. Conditions: cited from earlier work.
In another test the test system is N-type CaV channels. To be noted: cited from earlier work.
Another test concerns the target T5, CaV1.2^N741W (Homo sapiens, UniProt Q13936, N741W).
T5 construct: superfolder GFP (sfGFP) (C); Twin-Strep (C); expressed in transfected cells; host or cells: HEK293T
As to the kind of experiment: whole-cell patch clamp inhibition curves in HEK293T cells, N741W mutant. Type of test: cell-based. How it is done:
as §1, §2

A further test deals with T6, CaV1.2^N1179W (Homo sapiens, UniProt Q13936, N1179W).
T6 construct: superfolder GFP (sfGFP) (C); Twin-Strep (C); expressed in transfected cells; host or cells: HEK293T
T6 sequence (Q13936 whole entry N1179W): as the sequence (Q13936 whole entry Q1060M) above, with M1060Q, N1179W counted along it
T6 sequence (P54289 25-946 partner limits assumed): as the sequence (P54289 25-946 partner limits assumed) above
T6 sequence (P54289 947-1103 partner limits assumed): as the sequence (P54289 947-1103 partner limits assumed) above
T6 sequence (Q08289 1-606 isoform Q08289-3 partner): as the sequence (Q08289 1-606 isoform Q08289-3 partner) above
As to the kind of experiment: whole-cell patch clamp inhibition curves in HEK293T cells, N1179W mutant. Type of test: cell-based. How it is done:
as §1, §2

In the case of `CC1=C(C(=O)OC(C)C)[C@@H](c2cccc3nonc23)C([N+](=O)[O-])=C(C)N1` [R202-791], in test [1], the “effect of substitutions at T1056 and Q1060 on sensitivity of CaV1.2 to the drug” value is recorded as “almost abolished the sensitivity”.

Turning to `COC(=O)C1=C(C)NC(C)=C(C(=O)OC2CCCN(Cc3ccccc3)C2)C1c1cccc([N+](=O)[O-])c1` (stereo not drawn) [benidipine], the remaining activity at 0.01 µM was 93.9% on CaV1.2^Q1060F (HEK-293T, benidipine 0.01 μM, Q1060F, single experiments, Supplementary Fig. 7c source data, read-out: normalized current (I/Imax)); 91% in [2] (HEK-293T, benidipine 0.01 μM, WT, single experiments, Supplementary Fig. 7c source data, read-out: normalized current (I/Imax)); 99.8% at CaV1.2^T1056Y (HEK-293T, benidipine 0.01 μM, T1056Y, single experiments, Supplementary Fig. 7c source data, read-out: normalized current (I/Imax)); 97% on CaV1.2^Q1060M (HEK-293T, benidipine 0.01 μM, Q1060M, single experiments, Supplementary Fig. 7c source data, read-out: normalized current (I/Imax)). Moreover, the remaining activity at 0.1 µM at CaV1.2^Q1060F (HEK-293T, benidipine 0.1 μM, Q1060F, single experiments, Supplementary Fig. 7c source data, read-out: normalized current (I/Imax)) amounted to 88.2%; at CaV1.2^T1056Y (HEK-293T, benidipine 0.1 μM, T1056Y, single experiments, Supplementary Fig. 7c source data, read-out: normalized current (I/Imax)), 91.4%; on CaV1.2^Q1060M (HEK-293T, benidipine 0.1 μM, Q1060M, single experiments, Supplementary Fig. 7c source data, read-out: normalized current (I/Imax)), 88.7%. Also, the remaining activity at 1 µM was found to be 81.9% on CaV1.2^Q1060F (HEK-293T, benidipine 1 μM, Q1060F, single experiments, Supplementary Fig. 7c source data, read-out: normalized current (I/Imax)); 27.4% in test [2] (HEK-293T, benidipine 1 μM, WT, single experiments, Supplementary Fig. 7c source data, read-out: normalized current (I/Imax)); 85.3% on CaV1.2^T1056Y (HEK-293T, benidipine 1 μM, T1056Y, single experiments, Supplementary Fig. 7c source data, read-out: normalized current (I/Imax)); 73.2% at CaV1.2^Q1060M (HEK-293T, benidipine 1 μM, Q1060M, single experiments, Supplementary Fig. 7c source data, read-out: normalized current (I/Imax)). Also, the IC50 on CaV1.2^Q1060F (IC50 of benidipine on CaV1.2^Q1060F, held at -100 mV, depolarized at +10 mV every 1 min, n = 4) was 11.7 µM; on CaV1.2^Q1060F (benidipine, Q1060F, variable slope fit, X values in μM per sheet Supplementary Figure 7c, read-out: IC50 (best-fit value)), 11.7 µM; against CaV1.2^T1056Y (held at -100 mV, depolarized at +10 mV every 1 min, n = 4), greater than 100 µM; on CaV1.2^Q1060M (IC50 of benidipine on CaV1.2^Q1060M, held at -100 mV, depolarized at +10 mV every 1 min, n = 4), 7.5 µM; at CaV1.2^Q1060M (benidipine, Q1060M, variable slope fit, X values in μM per sheet Supplementary Figure 7c, read-out: IC50 (best-fit value)), 7.46 µM; in the test on T-type CaV channels, 11 µM and ~11 µM. Besides, in the test with N-type CaV channels, the IC50 is roughly 35 µM. For the same molecule, the “HillSlope (best-fit value)” value was -0.3921 at CaV1.2^Q1060F (benidipine, Q1060F); -0.5499 in [2] (benidipine, WT); -0.3204 at CaV1.2^T1056Y (benidipine, T1056Y); -0.4107 at CaV1.2^Q1060M (benidipine, Q1060M). In addition, the “logIC50 (best-fit value)” value on CaV1.2^Q1060F (benidipine, Q1060F, X values in μM) is listed as 1.07; in test [2] (benidipine, WT), -0.6638; on CaV1.2^T1056Y (benidipine, T1056Y, X values in μM), 2.427; on CaV1.2^Q1060M (benidipine, Q1060M, X values in μM), 0.8728. The molecule also gave a CaV1.2 current reduction in test [2] (benidipine 100 μM) of 90%. The remaining activity at 10 µM on CaV1.2^T1056Y (HEK-293T, benidipine 10 μM, T1056Y, single experiments, Supplementary Fig. 7c source data, read-out: normalized current (I/Imax)) came out at 67.2%; on CaV1.2^Q1060M (HEK-293T, benidipine 10 μM, Q1060M, single experiments, Supplementary Fig. 7c source data, read-out: normalized current (I/Imax)) it was 46.7%. For the same molecule, on CaV1.2^Q1060M (HEK-293T, benidipine 100 μM, Q1060M, single experiments, Supplementary Fig. 7c source data, read-out: normalized current (I/Imax)), the remaining activity at 100 µM is 20.1%. For the same molecule, the “selectivity class for L-type and T-type channels” value (shortened to “selectivity class”) in test [3] was “L/T-type selective”; in test [3] (listed as Benidipine) it was “non-selective”.

On to `COCCOC(=O)C1=C(C)NC(C)=C(C(=O)OC/C=C/c2ccccc2)C1c1cccc([N+](=O)[O-])c1` (stereo not drawn) [cilnidipine, Cilnidipine], for which, in [3], the “selectivity class” value is on record as “L-type selective”. For the same molecule, the “inhibition of T-type channels” value with T-type CaV channels (result in words) is recorded as “cannot inhibit T-type channels”.

For `CCOC(=O)C1=C(C)NC(C)=C(C(=O)OC)C1c1cccc(Cl)c1Cl` (stereo not drawn) [felodipine, Felodipine], the “selectivity class” value in test [3] is “L-type selective”.

Turning to `COC(=O)C1=C(C)NC(C)=C(C(=O)OCCN2CCN(C(c3ccccc3)c3ccccc3)CC2)C1c1cccc([N+](=O)[O-])c1` (stereo not drawn) [manidipine, Manidipine], the “selectivity class” value in test [3] is reported as “L/T-type selective”; in test [3] (listed as Manidipine), “non-selective”.

As to `COC(=O)C1=C(C)NC(C)=C(C(=O)OC)C1c1ccccc1[N+](=O)[O-]` [nifedipine], the “selectivity class” value in test [3] was “L-type selective”. In addition, the “sensitivity of T-type CaV channels” value with T-type CaV channels (result in words) is given as “no sensitivity”. Also, the “sensitivity of N-type CaV channels” value with N-type CaV channels (result in words) is “no sensitivity”.

For `COCCOC(=O)C1=C(C)NC(C)=C(C(=O)OC(C)C)C1c1cccc([N+](=O)[O-])c1` (stereo not drawn) [nimodipine, Nimodipine], in test [3], the “selectivity class” value was “non-selective”. In addition, the “preference among T-type channels” value in the test on T-type CaV channels (CaV3.1, CaV3.2, CaV3.3) was “preference for inhibiting CaV3.2 and CaV3.3 over CaV3.1”.

In the case of `CCOC(=O)C1=C(C)NC(C)=C(C(=O)OC)C1c1cccc([N+](=O)[O-])c1` (stereo not drawn) [nitrendipine, Nitrendipine], in test [3], the “selectivity class” value is on record as “L-type selective”.

As for `COc1ccc2cc1Oc1ccc(cc1)C[C@H]1c3cc(c(OC)cc3CCN1C)Oc1c(OC)c(OC)cc3c1[C@H](C2)N(C)CC3` [tetrandrine], the remaining activity at 0.001 µM is 90.1% at CaV1.2^N741W (HEK-293T, tetrandrine 0.001 μM, N741W, single experiments, Fig. 3f source data, read-out: normalized current (I/Imax)); 86.3% at CaV1.2^N1179W (HEK-293T, tetrandrine 0.001 μM, N1179W, single experiments, Fig. 3f source data, read-out: normalized current (I/Imax)); 84.9% in test [2] (HEK-293T, tetrandrine 0.001 μM, WT, single experiments, Fig. 3f source data, read-out: normalized current (I/Imax)). In addition, the remaining activity at 0.1 µM on CaV1.2^N741W (HEK-293T, tetrandrine 0.1 μM, N741W, single experiments, Fig. 3f source data, read-out: normalized current (I/Imax)) turned out to be 49.4%. The remaining activity at 10 µM on CaV1.2^N741W (HEK-293T, tetrandrine 10 μM, N741W, single experiments, Fig. 3f source data, read-out: normalized current (I/Imax)) was determined as 22.8%. Also, the IC50 against CaV1.2^N741W (IC50 of tetrandrine on CaV1.2^N741W, held at -100 mV, depolarized at +10 mV every 20 s, n = 10) was 0.0713 µM; at CaV1.2^N741W (tetrandrine, N741W, variable slope fit, bottom 0, top 1, X values in μM per sheet Figure 3f, read-out: IC50 (best-fit value)) it was 0.0712 µM; at CaV1.2^N1179W (held at -100 mV, depolarized at +10 mV every 20 s, n = 10) it was 0.0418 µM; in test [2] (IC50 of tetrandrine on CaV1.2^WT, held at -100 mV, depolarized at +10 mV every 20 s, n = 10) it was ~0.0142 µM and 0.0142 µM. Further, the “HillSlope (best-fit value)” value was -0.3074 on CaV1.2^N741W (tetrandrine, N741W); -0.3696 on CaV1.2^N1179W (tetrandrine, N1179W); -0.4914 in [2] (tetrandrine, WT). For the same molecule, the “logIC50 (best-fit value)” value on CaV1.2^N741W (tetrandrine, N741W, X values in μM) is listed as -1.147; on CaV1.2^N1179W (tetrandrine, N1179W, X values in μM) it was -1.379; in test [2] (tetrandrine, WT), -1.849. The CaV1.2 current reduction in [2] (tetrandrine 10 μM) turned out to be 90%.
